How the values were obtained:
A. flavus [1] = experiment: Antifungal disk diffusion susceptibility test (CLSI M44); assay type: cell-based; conditions: Aspergillus flavus, read-out: Activity (mm)
Procedure: (§1) Filamentous fungi and yeasts strains, from clinical origin, were supplied by Microbiology Service from The Princess Hospital, Madrid. They are detailed in Table IX.
(§2) Filamentous fungi and yeast cells suspensions in distilled water was prepared from a culture of 24-48 h, depending on species, in Sabouraud agar. Each suspension was adjusted to a fixed size inoculum of 1-5×10^8 CFU/ml with a spectrophotometer (Ferraro, MJ National Committee for Clinical Laboratory Standards. 2000).
(§3) Antifungal susceptibility tests were developed following the standardized methodology detailed in document CLSI: M44-4: Method for Antifungal Disk diffusion susceptibility testing of yeasts consisting of disk diffusion on agar Muller-Hinton (supplemented with 2% glucose).

A. fumigatus [2] = experiment: as above; assay type: cell-based; conditions: Aspergillus fumigatus, read-out: Activity (mm)
Procedure: as §1, §2, §3

A. niger [3] = experiment: as above; assay type: cell-based; conditions: Aspergillus niger, read-out: Activity (mm)
Procedure: as §1, §2, §3

A. terreus [4] = experiment: as above; assay type: cell-based; conditions: Aspergillus terreus, read-out: Activity (mm)
Procedure: as §1, §2, §3

C. albicans [5] = experiment: as above; assay type: cell-based; conditions: Candida albicans, read-out: Activity (mm)
Procedure: as §1, §2, §3

C. guillermondii [6] = experiment: as above; assay type: cell-based; conditions: read-out: Activity (mm)
Procedure: as §1, §2, §3

C. lusitaniae [7] = experiment: as above; assay type: cell-based; conditions: Clavispora lusitaniae, read-out: Activity (mm)
Procedure: as §1, §2, §3

C. parapsilosis [8] = experiment: as above; assay type: cell-based; conditions: Lodderomyces parapsilosis, read-out: Activity (mm)
Procedure: as §1, §2, §3

C. tropicalis [9] = experiment: as above; assay type: cell-based; conditions: Candida tropicalis, read-out: Activity (mm)
Procedure: as §1, §2, §3

S. cerevisiae [10] = experiment: as above; assay type: cell-based; conditions: Saccharomyces cerevisiae, read-out: Activity (mm)
Procedure: as §1, §2, §3

C. albicans [11] = tested on: C. albicans; set-up: key: I = intermediate activity; S = susceptibility; R = Resistance; conditions: C. albicans clinical strain; cited from earlier work
C. glabrata = tested on: C. glabrata; set-up: key: I = intermediate activity; S = susceptibility; R = Resistance; conditions: C. glabrata clinical strain; cited from earlier work
C. tropicalis [12] = tested on: C. tropicalis; set-up: key: I = intermediate activity; S = susceptibility; R = Resistance; conditions: C. tropicalis clinical strain; cited from earlier work
C. parapsilosis [13] = tested on: C. parapsilosis; set-up: key: I = intermediate activity; S = susceptibility; R = Resistance; conditions: C. parapsilosis clinical strain; cited from earlier work
C. lusitaniae [14] = tested on: C. lusitaniae; set-up: key: I = intermediate activity; S = susceptibility; R = Resistance; conditions: C. lusitaniae clinical strain; cited from earlier work
C. Krusei = tested on: C. Krusei; set-up: key: I = intermediate activity; S = susceptibility; R = Resistance; conditions: C. Krusei clinical strain; cited from earlier work
C. guillermondii [15] = tested on: C. guillermondii; set-up: key: I = intermediate activity; S = susceptibility; R = Resistance; conditions: C. guillermondii clinical strain; cited from earlier work
A. fumigatus [16] = tested on: A. fumigatus; set-up: key: I = intermediate activity; S = susceptibility; R = Resistance; conditions: A. fumigatus clinical strain; cited from earlier work
A. niger [17] = tested on: A. niger; set-up: key: I = intermediate activity; S = susceptibility; R = Resistance; conditions: A. niger clinical strain; cited from earlier work
A. terreus [18] = tested on: A. terreus; set-up: key: I = intermediate activity; S = susceptibility; R = Resistance; conditions: A. terreus clinical strain; cited from earlier work
A. flavus [19] = tested on: A. flavus; set-up: key: I = intermediate activity; S = susceptibility; R = Resistance; conditions: A. flavus clinical strain; cited from earlier work
S. cerevisiae [20] = tested on: S. cerevisiae; set-up: key: I = intermediate activity; S = susceptibility; R = Resistance; conditions: S. cerevisiae clinical strain; cited from earlier work
C. difficile = experiment: Kirby-Bauer disk diffusion susceptibility test; assay type: cell-based; conditions: for Antibiotic activity (Table VIII, zone of inhibition): 300 μg
Procedure: (§4) Bacterial strains, from clinical origin, were supplied by the National Center for Microbiology, Institute of Health Carlos III (Majadahonda, Madrid). They are detailed in Table 1.
(§5) Bacterial cells suspension in sterile saline was prepared from a culture of 24-72 h, depending on bacterial species, in Mueller-Hinton Agar with 5% sheep blood. Each suspension was adjusted to a fixed size inoculum of 1-5×10^8 CFU/ml with a spectrophotometer (Ferraro, MJ National Committee for Clinical Laboratory Standards. 2000).
(§6) Kirby-Bauer disk diffusion susceptibility test protocol was utilized to determine the sensitivity or resistance of pathogenic bacteria against the compounds and others antibiotics. The absence of growth around the disks is an indirect measure of the ability of this compound to inhibit an organism (Kirby, W., et al., Antibiotics Annu. 1956-1957:892). After 18 to 72 hours of incubation at 37° C., with or without CO2, under aerobic or anaerobic conditions, depending on the bacterial species, halo of growth inhibition were obtained and evaluated.
(§7) Interpretation of susceptibility and resistance was based on the presence or absence of a zone of inhibition surrounding the disk. Kirby-Bauer disk diffusion susceptibility test is a common method which uses antibiotic-impregnated wafers to test whether bacteria are affected by antibiotics. The size of the zone of inhibition depends on how effective the antibiotic is at stopping the growth of the bacterium. A stronger antibiotic will create a larger zone, because a lower concentration of the antibiotic is enough to stop growth.
(§8) All compounds were tested at 300 μg/disc.

K. pneumoniae = experiment: Kirby-Bauer disk diffusion susceptibility test; assay type: cell-based; conditions: for Antibiotic activity (Table VIII, zone of inhibition): 300 μg
Procedure: as §4, §5, §6, §7, §8

N. carnea = experiment: Kirby-Bauer disk diffusion susceptibility test; assay type: cell-based; conditions: for Antibiotic activity (Table VIII, zone of inhibition): 300 μg
Procedure: as §4, §5, §6, §7, §8

N. cyriacigeorgica = experiment: Kirby-Bauer disk diffusion susceptibility test; assay type: cell-based; conditions: for Antibiotic activity (Table VIII, zone of inhibition): 300 μg
Procedure: as §4, §5, §6, §7, §8

S. pneumoniae = experiment: Kirby-Bauer disk diffusion susceptibility test; assay type: cell-based; conditions: for Antibiotic activity (Table VIII, zone of inhibition): 300 μg
Procedure: as §4, §5, §6, §7, §8

S. pyogenes = experiment: Kirby-Bauer disk diffusion susceptibility test; assay type: cell-based; conditions: 300 μg/disc
Procedure: as §4, §5, §6, §7, §8

T. pulmonis = experiment: Kirby-Bauer disk diffusion susceptibility test; assay type: cell-based; conditions: for Antibiotic activity (Table VIII, zone of inhibition): 300 μg
Procedure: as §4, §5, §6, §7, §8

A. baumannii = experiment: Kirby-Bauer disk diffusion susceptibility test; assay type: cell-based; conditions: 300 μg
Procedure: as §4, §5, §6, §7, §8

E. cloacae = experiment: Kirby-Bauer disk diffusion susceptibility test; assay type: cell-based; conditions: 300 μg
Procedure: as §4, §5, §6, §7, §8

E. coli = experiment: Kirby-Bauer disk diffusion susceptibility test; assay type: cell-based; conditions: 300 μg
Procedure: as §4, §5, §6, §7, §8

E. faecalis = experiment: Kirby-Bauer disk diffusion susceptibility test; assay type: cell-based; conditions: E. foecalis; 300 μg
Procedure: as §4, §5, §6, §7, §8

E. faecium = experiment: Kirby-Bauer disk diffusion susceptibility test; assay type: cell-based; conditions: 300 μg
Procedure: as §4, §5, §6, §7, §8

M. abscessus = experiment: Kirby-Bauer disk diffusion susceptibility test; assay type: cell-based; conditions: 300 μg
Procedure: as §4, §5, §6, §7, §8

P. aeruginosa = experiment: Kirby-Bauer disk diffusion susceptibility test; assay type: cell-based; conditions: 300 μg
Procedure: as §4, §5, §6, §7, §8

S. epidermidis = experiment: Kirby-Bauer disk diffusion susceptibility test; assay type: cell-based; conditions: 300 μg
Procedure: as §4, §5, §6, §7, §8

SMILES: CC(=O)N1CCN(c2ccc(OCC3COC(Cn4ccnc4)(c4ccc(Cl)cc4Cl)O3)cc2)CC1 (stereo not drawn) [Ket, ketoconazole]
- zone of inhibition at 50 µg/disc (A. flavus [1]): 32 mm
- zone of inhibition at 50 µg/disc (A. fumigatus [2]): 22 mm
- zone of inhibition at 50 µg/disc (A. niger [3]): 25 mm
- zone of inhibition at 50 µg/disc (A. terreus [4]): 26 mm
- zone of inhibition at 50 µg/disc (C. albicans [5]): 22 mm
- zone of inhibition at 50 µg/disc (C. guillermondii [6]): 44 mm
- zone of inhibition at 50 µg/disc (C. lusitaniae [7]): 41 mm
- zone of inhibition at 50 µg/disc (C. parapsilosis [8]): 42 mm
- zone of inhibition at 50 µg/disc (C. tropicalis [9]): 25 mm
- zone of inhibition at 50 µg/disc (S. cerevisiae [10]): 30 mm
- Susceptibility of the strain (C. albicans [11]): S
- Susceptibility of the strain (C. glabrata): S
- Susceptibility of the strain (C. tropicalis [12]): S
- Susceptibility of the strain (C. parapsilosis [13]): S
- Susceptibility of the strain (C. lusitaniae [14]): S
- Susceptibility of the strain (C. Krusei): S
- Susceptibility of the strain (C. guillermondii [15]): R
- Susceptibility of the strain (A. fumigatus [16]): S
- Susceptibility of the strain (A. niger [17]): S
- Susceptibility of the strain (A. terreus [18]): S
- Susceptibility of the strain (A. flavus [19]): S
- Susceptibility of the strain (S. cerevisiae [20]): S

SMILES: NNC(=O)C(=O)NOc1ccccc1 [MSG-196]
- Activity detected (mm) (C. difficile; 300 μg/disc): 18 mm
- Activity detected (mm) (K. pneumoniae; 300 μg/disc): 13 mm
- Activity detected (mm) (N. carnea; 300 μg/disc): 30 mm
- Activity detected (mm) (N. cyriacigeorgica; 300 μg/disc): 34 mm
- Activity detected (mm) (S. pneumoniae; 300 μg/disc): 20 mm
- Activity detected (mm) (S. pyogenes): 20 mm
- Activity detected (mm) (T. pulmonis; 300 μg/disc): 22 mm

SMILES: NNC(=O)C(=O)NNc1ccc(OC(=O)c2ccccc2)cc1 [MSG-231]
- Antibiotic activity (Table VIII, zone of inhibition) (A. baumannii): 20 mm
- Antibiotic activity (Table VIII, zone of inhibition) (C. difficile): 24 mm
- Antibiotic activity (Table VIII, zone of inhibition) (E. cloacae): 10 mm
- Antibiotic activity (Table VIII, zone of inhibition) (E. coli): 17 mm
- Antibiotic activity (Table VIII, zone of inhibition) (E. faecalis): 29 mm
- Antibiotic activity (Table VIII, zone of inhibition) (E. faecium): 27 mm
- Antibiotic activity (Table VIII, zone of inhibition) (K. pneumoniae): 10 mm
- Antibiotic activity (Table VIII, zone of inhibition) (M. abscessus): 27 mm
- Antibiotic activity (Table VIII, zone of inhibition) (N. carnea): 38 mm
- Antibiotic activity (Table VIII, zone of inhibition) (N. cyriacigeorgica): 33 mm
- Antibiotic activity (Table VIII, zone of inhibition) (P. aeruginosa): 11 mm
- Antibiotic activity (Table VIII, zone of inhibition) (S. epidermidis): 33 mm
- Antibiotic activity (Table VIII, zone of inhibition) (S. pneumoniae): 24 mm
- Antibiotic activity (Table VIII, zone of inhibition) (T. pulmonis): 27 mm

SMILES: COc1ccccc1NNC(=O)C(=O)NN [MSG-235]
- Antibiotic activity (Table VIII, zone of inhibition) (A. baumannii): 15 mm
- Antibiotic activity (Table VIII, zone of inhibition) (C. difficile): 20 mm
- Antibiotic activity (Table VIII, zone of inhibition) (E. cloacae): 11 mm
- Antibiotic activity (Table VIII, zone of inhibition) (E. coli): 14 mm
- Antibiotic activity (Table VIII, zone of inhibition) (E. faecalis): 25 mm
- Antibiotic activity (Table VIII, zone of inhibition) (E. faecium): 22 mm
- Antibiotic activity (Table VIII, zone of inhibition) (K. pneumoniae): 12 mm
- Antibiotic activity (Table VIII, zone of inhibition) (M. abscessus): 23 mm
- Antibiotic activity (Table VIII, zone of inhibition) (N. carnea): 34 mm
- Antibiotic activity (Table VIII, zone of inhibition) (N. cyriacigeorgica): 29 mm
- Antibiotic activity (Table VIII, zone of inhibition) (P. aeruginosa): 11 mm
- Antibiotic activity (Table VIII, zone of inhibition) (S. epidermidis): 27 mm
- Antibiotic activity (Table VIII, zone of inhibition) (S. pneumoniae): 21 mm
- Antibiotic activity (Table VIII, zone of inhibition) (T. pulmonis): 24 mm
